± gives the expanded uncertainty stated by the source.
Tests used:
[1] = activity coefficient (dimensionless); of the first substance listed, at infinite dilution; xn = mol fraction of the nth substance listed; details: 101 kPa, Liquid, Chromatography, x1 = 0
[2] = refractive index (Na D-line) (dimensionless); details: 293.15 K; 101.33 kPa; Liquid; Standard Abbe refractometry
[3] = 288.15 K; 101.33 kPa; Liquid; Vibrating tube method

C=CCCCCC [1-heptene] + OCCOCCO
activity coefficient ([1]; 333.2 K): 72.3 ± 5
activity coefficient ([1]; 348.2 K): 66.6 ± 4.6
activity coefficient ([1]; 363.2 K): 60.5 ± 4.1

C=CCCCCC [1-heptene] + OCCOCCOCCO
activity coefficient ([1]; 333.2 K): 34.4 ± 2.4
activity coefficient ([1]; 348.2 K): 30.6 ± 2.1
activity coefficient ([1]; 363.2 K): 27.5 ± 1.9

C#CCCCCC [1-heptyne] + OCCOCCO
activity coefficient ([1]; 333.2 K): 20.3 ± 1.4
activity coefficient ([1]; 348.2 K): 20.8 ± 1.4
activity coefficient ([1]; 363.2 K): 19.3 ± 1.3

C#CCCCCC [1-heptyne] + OCCOCCOCCO
activity coefficient ([1]; 333.2 K): 10.2 ± 0.7
activity coefficient ([1]; 348.2 K): 9.04 ± 0.62
activity coefficient ([1]; 363.2 K): 8.99 ± 0.61

C#CCCCC [1-hexyne] + OCCOCCO
activity coefficient ([1]; 333.2 K): 14.1 ± 0.96
activity coefficient ([1]; 348.2 K): 14.6 ± 1
activity coefficient ([1]; 363.2 K): 13.8 ± 0.94

C#CCCCC [1-hexyne] + OCCOCCOCCO
activity coefficient ([1]; 333.2 K): 7.01 ± 0.48
activity coefficient ([1]; 348.2 K): 7.03 ± 0.48
activity coefficient ([1]; 363.2 K): 6.69 ± 0.46

C#CCCCCCC [1-octyne] + OCCOCCO
activity coefficient ([1]; 333.2 K): 29.9 ± 2
activity coefficient ([1]; 348.2 K): 29.7 ± 2
activity coefficient ([1]; 363.2 K): 27 ± 1.9

C#CCCCCCC [1-octyne] + OCCOCCOCCO
activity coefficient ([1]; 333.2 K): 14.4 ± 0.98
activity coefficient ([1]; 348.2 K): 12.8 ± 0.87
activity coefficient ([1]; 363.2 K): 12.2 ± 0.83

C=CCCC [1-pentene] + OCCOCCO
activity coefficient ([1]; 333.2 K): 35.3 ± 4.4
activity coefficient ([1]; 348.2 K): 32.9 ± 4.1
activity coefficient ([1]; 363.2 K): 27.6 ± 3.4

C=CCCC [1-pentene] + OCCOCCOCCO
activity coefficient ([1]; 333.2 K): 17.5 ± 2.2
activity coefficient ([1]; 348.2 K): 16.1 ± 2
activity coefficient ([1]; 363.2 K): 14.8 ± 1.8

C#CCCC [1-pentyne] + OCCOCCO
activity coefficient ([1]; 333.2 K): 9.93 ± 1.2
activity coefficient ([1]; 348.2 K): 10.5 ± 1.3
activity coefficient ([1]; 363.2 K): 10.2 ± 1.3

C#CCCC [1-pentyne] + OCCOCCOCCO
activity coefficient ([1]; 333.2 K): 5.07 ± 0.63
activity coefficient ([1]; 348.2 K): 5.11 ± 0.64
activity coefficient ([1]; 363.2 K): 5.01 ± 0.62

c1ccccc1 [benzene] + OCCOCCO
activity coefficient ([1]; 333.2 K): 7.33 ± 0.5
activity coefficient ([1]; 348.2 K): 7.21 ± 0.49
activity coefficient ([1]; 363.2 K): 7.05 ± 0.48

c1ccccc1 [benzene] + OCCOCCOCCO
activity coefficient ([1]; 333.2 K): 3.91 ± 0.27
activity coefficient ([1]; 348.2 K): 3.86 ± 0.26
activity coefficient ([1]; 363.2 K): 3.36 ± 0.23

C1CCCCCC1 [cycloheptane] + OCCOCCO
activity coefficient ([1]; 333.2 K): 52.4 ± 3.6
activity coefficient ([1]; 348.2 K): 47.4 ± 3.2
activity coefficient ([1]; 363.2 K): 42.1 ± 2.9

C1CCCCCC1 [cycloheptane] + OCCOCCOCCO
activity coefficient ([1]; 333.2 K): 29.6 ± 2
activity coefficient ([1]; 348.2 K): 22.3 ± 1.5
activity coefficient ([1]; 363.2 K): 19.8 ± 1.4

C1CCCCC1 [cyclohexane] + OCCOCCO
activity coefficient ([1]; 333.2 K): 42.7 ± 2.9
activity coefficient ([1]; 348.2 K): 39.2 ± 2.7
activity coefficient ([1]; 363.2 K): 34.9 ± 2.4

C1CCCCC1 [cyclohexane] + OCCOCCOCCO
activity coefficient ([1]; 333.2 K): 21.1 ± 1.4
activity coefficient ([1]; 348.2 K): 18.6 ± 1.3
activity coefficient ([1]; 363.2 K): 16.8 ± 1.1

C1CCCCCCC1 [cyclooctane] + OCCOCCO
activity coefficient ([1]; 333.2 K): 70.7 ± 4.8
activity coefficient ([1]; 348.2 K): 61.3 ± 4.2
activity coefficient ([1]; 363.2 K): 52.2 ± 3.6

C1CCCCCCC1 [cyclooctane] + OCCOCCOCCO
activity coefficient ([1]; 333.2 K): 35.3 ± 2.4
activity coefficient ([1]; 348.2 K): 27.2 ± 1.9
activity coefficient ([1]; 363.2 K): 23.9 ± 1.6

C1CCCC1 [cyclopentane] + OCCOCCO
activity coefficient ([1]; 333.2 K): 30.9 ± 2.1
activity coefficient ([1]; 348.2 K): 27.6 ± 1.9
activity coefficient ([1]; 363.2 K): 25.9 ± 1.8

C1CCCC1 [cyclopentane] + OCCOCCOCCO
activity coefficient ([1]; 333.2 K): 15.2 ± 1
activity coefficient ([1]; 348.2 K): 14 ± 0.95
activity coefficient ([1]; 363.2 K): 12.7 ± 0.87

OCCOCCO [diethylene glycol]
refractive index [2]: 1.4471 ± 0.0004
mass density [3]: 1120.05 ± 0.28 kg/m3

CCO [ethanol] + OCCOCCO
activity coefficient ([1]; 333.2 K): 1.47 ± 0.1
activity coefficient ([1]; 348.2 K): 1.46 ± 0.1
activity coefficient ([1]; 363.2 K): 1.46 ± 0.1

CCO [ethanol] + OCCOCCOCCO
activity coefficient ([1]; 333.2 K): 1.18 ± 0.08
activity coefficient ([1]; 348.2 K): 1.15 ± 0.07
activity coefficient ([1]; 363.2 K): 1.12 ± 0.07

CCc1ccccc1 [ethylbenzene] + OCCOCCO
activity coefficient ([1]; 333.2 K): 16.8 ± 1.1
activity coefficient ([1]; 348.2 K): 16.1 ± 1.1
activity coefficient ([1]; 363.2 K): 15.2 ± 1

CCc1ccccc1 [ethylbenzene] + OCCOCCOCCO
activity coefficient ([1]; 333.2 K): 8.63 ± 0.59
activity coefficient ([1]; 348.2 K): 8.21 ± 0.56
activity coefficient ([1]; 363.2 K): 7.86 ± 0.54

CCCCCCC [heptane] + OCCOCCO
activity coefficient ([1]; 333.2 K): 131 ± 9
activity coefficient ([1]; 348.2 K): 122 ± 8.4
activity coefficient ([1]; 363.2 K): 95.4 ± 6.5

CCCCCCC [heptane] + OCCOCCOCCO
activity coefficient ([1]; 333.2 K): 62.3 ± 4.3
activity coefficient ([1]; 348.2 K): 52.3 ± 3.6
activity coefficient ([1]; 363.2 K): 43.7 ± 3

C=CCCCC [hex-1-ene] + OCCOCCO
activity coefficient ([1]; 333.2 K): 50.7 ± 3.5
activity coefficient ([1]; 348.2 K): 47.3 ± 3.2
activity coefficient ([1]; 363.2 K): 38.9 ± 2.7

C=CCCCC [hex-1-ene] + OCCOCCOCCO
activity coefficient ([1]; 333.2 K): 24.6 ± 1.7
activity coefficient ([1]; 348.2 K): 22.7 ± 1.6
activity coefficient ([1]; 363.2 K): 20.4 ± 1.4

CCCCCC [hexane] + OCCOCCO
activity coefficient ([1]; 333.2 K): 95.7 ± 6.6
activity coefficient ([1]; 348.2 K): 84 ± 5.8
activity coefficient ([1]; 363.2 K): 82.4 ± 5.6

CCCCCC [hexane] + OCCOCCOCCO
activity coefficient ([1]; 333.2 K): 45.8 ± 3.1
activity coefficient ([1]; 348.2 K): 40.3 ± 2.8
activity coefficient ([1]; 363.2 K): 35.1 ± 2.4

CO [methanol] + OCCOCCO
activity coefficient ([1]; 333.2 K): 0.988 ± 0.062
activity coefficient ([1]; 348.2 K): 1.01 ± 0.06
activity coefficient ([1]; 363.2 K): 1.02 ± 0.06

CO [methanol] + OCCOCCOCCO
activity coefficient ([1]; 333.2 K): 0.788 ± 0.051
activity coefficient ([1]; 348.2 K): 0.787 ± 0.051

CCCCCCCCC [nonane] + OCCOCCO
activity coefficient ([1]; 333.2 K): 264 ± 18
activity coefficient ([1]; 348.2 K): 230 ± 16
activity coefficient ([1]; 363.2 K): 193 ± 13

CCCCCCCCC [nonane] + OCCOCCOCCO
activity coefficient ([1]; 333.2 K): 137 ± 9.4
activity coefficient ([1]; 348.2 K): 98.9 ± 6.8
activity coefficient ([1]; 363.2 K): 83.1 ± 5.7

C=CCCCCCC [oct-1-ene] + OCCOCCO
activity coefficient ([1]; 333.2 K): 101 ± 6.9
activity coefficient ([1]; 348.2 K): 93.5 ± 6.4
activity coefficient ([1]; 363.2 K): 82.6 ± 5.7

C=CCCCCCC [oct-1-ene] + OCCOCCOCCO
activity coefficient ([1]; 333.2 K): 55.9 ± 3.8
activity coefficient ([1]; 348.2 K): 41.8 ± 2.9
activity coefficient ([1]; 363.2 K): 36.8 ± 2.5

CCCCCCCC [octane] + OCCOCCO
activity coefficient ([1]; 333.2 K): 188 ± 13
activity coefficient ([1]; 348.2 K): 168 ± 12
activity coefficient ([1]; 363.2 K): 146 ± 10

CCCCCCCC [octane] + OCCOCCOCCO
activity coefficient ([1]; 333.2 K): 103 ± 7.1
activity coefficient ([1]; 348.2 K): 74 ± 5.1
activity coefficient ([1]; 363.2 K): 62.9 ± 4.3

CCCCC [pentane] + OCCOCCO
activity coefficient ([1]; 333.2 K): 70.2 ± 8.7
activity coefficient ([1]; 348.2 K): 53.8 ± 6.7
activity coefficient ([1]; 363.2 K): 54.2 ± 6.7

CCCCC [pentane] + OCCOCCOCCO
activity coefficient ([1]; 333.2 K): 33.7 ± 4.2
activity coefficient ([1]; 348.2 K): 30.8 ± 3.8
activity coefficient ([1]; 363.2 K): 23.2 ± 2.9

CCCO [propan-1-ol] + OCCOCCO
activity coefficient ([1]; 333.2 K): 1.8 ± 0.12
activity coefficient ([1]; 348.2 K): 1.77 ± 0.12
activity coefficient ([1]; 363.2 K): 1.74 ± 0.12

CCCO [propan-1-ol] + OCCOCCOCCO
activity coefficient ([1]; 333.2 K): 1.38 ± 0.09
activity coefficient ([1]; 348.2 K): 1.34 ± 0.09
activity coefficient ([1]; 363.2 K): 1.31 ± 0.09

CC(C)O [propan-2-ol] + OCCOCCO
activity coefficient ([1]; 333.2 K): 1.79 ± 0.12
activity coefficient ([1]; 348.2 K): 1.77 ± 0.12
activity coefficient ([1]; 363.2 K): 1.74 ± 0.12

CC(C)O [propan-2-ol] + OCCOCCOCCO
activity coefficient ([1]; 333.2 K): 1.45 ± 0.1
activity coefficient ([1]; 348.2 K): 1.4 ± 0.09
activity coefficient ([1]; 363.2 K): 1.38 ± 0.09

Cc1ccccc1 [toluene] + OCCOCCO
activity coefficient ([1]; 333.2 K): 11.2 ± 0.77
activity coefficient ([1]; 348.2 K): 10.9 ± 0.75
activity coefficient ([1]; 363.2 K): 10.5 ± 0.72

Cc1ccccc1 [toluene] + OCCOCCOCCO
activity coefficient ([1]; 333.2 K): 5.88 ± 0.4
activity coefficient ([1]; 348.2 K): 5.73 ± 0.39
activity coefficient ([1]; 363.2 K): 5.55 ± 0.38

OCCOCCOCCO [triethylene glycol]
refractive index [2]: 1.4563 ± 0.0004
mass density [3]: 1127.37 ± 0.15 kg/m3

Reference: the NIST ThermoML archive (doi:10.1016/j.jct.2013.05.011)
